Experimental data from patent US9326506B2, “Preparation method, agricultural composition and applications of natural brassinolide analogs” (CHENGDU NEWSUN CROPSCIENCE CO., LTD, priority 2012, dated 2016).

Test system: rice
Assay: Low temperature assay on rice seedlings
Assay type: in vivo
Description: According to a low temperature assay, we measured parameters including plant height, number of leaf, area of leaf, number of tiller, weight of root at low temperature to completely determine effects of the natural brassinolide analogues on the resistance to low temperature of a plant.
The natural brassinolide analogues, BR1, BR2, BR3, BR4, BR5 and BR6, used herein, were those prepared by the method of Example 1. Respectively the analogues were dissolved into 95% (V/V) ethanol solution, and then diluted with pure water to 1 mg/L, 0.1 mg/L, 0.01 mg/L, 0.001 mg/L and 0.0001 mg/L. In addition, pure water was used as a control.
After rice seeds were disinfected by using 5% sodium hypochlorite solution treatment, they were rinsed with distilled water until their pH>7, placed into a petri dish in a dark incubator, and cultured by using water at 30° C.±2° C. for 9 days. Then respectively the nine-day-old etiolated seedlings of rice were immersed in the above solutions containing different concentrations of the natural brassinolide analogues or pure water, and cultured at the temperature of 1° C., 2° C., 3° C., 4° C. and 5° C. for 24 hr. The parameters including plant height, area of leaf and weight of root after 3, 6, 9 and 12 days and number of leaf and number of tiller after 12 days were measured.

CC(C)[C@H](C)[C@@H](O)[C@H](O)[C@@H](C)[C@H]1CCC2C3COC(=O)C4C[C@H](O)[C@H](O)C[C@]4(C)C3CC[C@@]21C (stereo partly shown) [BR1]
Area of leaf (0.001 mg/l, 2 °C, 6 days): 11.8 cm^2 | Height (0.001 mg/l, 2 °C, 6 days): 7.1 cm | Weight of root (0.001 mg/l, 2 °C, 6 days): 3.0 g | Area of leaf (0.001 mg/l, 2 °C, 9 days): 12.6 cm^2 | Height (0.001 mg/l, 2 °C, 9 days): 7.2 cm | Weight of root (0.001 mg/l, 2 °C, 9 days): 3.2 g | Area of leaf (0.001 mg/l, 2 °C, 12 days): 13.1 cm^2 | Height (0.001 mg/l, 2 °C, 12 days): 7.3 cm | Number of leaf (0.001 mg/l, 2 °C, 12 days): 3 | Number of tiller (0.001 mg/l, 2 °C, 12 days): 3 | Weight of root (0.001 mg/l, 2 °C, 12 days): 3.9 g | Area of leaf (0.001 mg/l, 3 °C, 3 days): 10.4 cm^2 | Height (0.001 mg/l, 3 °C, 3 days): 7 cm | Weight of root (0.001 mg/l, 3 °C, 3 days): 2.5 g | Area of leaf (0.001 mg/l, 3 °C, 6 days): 12 cm^2 | Height (0.001 mg/l, 3 °C, 6 days): 7.1 cm | Weight of root (0.001 mg/l, 3 °C, 6 days): 2.6 g | Area of leaf (0.001 mg/l, 3 °C, 9 days): 12.6 cm^2 | Height (0.001 mg/l, 3 °C, 9 days): 7.4 cm | Weight of root (0.001 mg/l, 3 °C, 9 days): 2.9 g | Area of leaf (0.001 mg/l, 3 °C, 12 days): 13.2 cm^2 | Height (0.001 mg/l, 3 °C, 12 days): 7.3 cm | Number of leaf (0.001 mg/l, 3 °C, 12 days): 3 | Number of tiller (0.001 mg/l, 3 °C, 12 days): 2 | Weight of root (0.001 mg/l, 3 °C, 12 days): 2.9 g | Area of leaf (0.001 mg/l, 4 °C, 3 days): 10.6 cm^2 | Height (0.001 mg/l, 4 °C, 3 days): 7.1 cm | Weight of root (0.001 mg/l, 4 °C, 3 days): 2.5 g | Area of leaf (0.001 mg/l, 4 °C, 6 days): 12.4 cm^2 | Height (0.001 mg/l, 4 °C, 6 days): 7.3 cm | Weight of root (0.001 mg/l, 4 °C, 6 days): 2.6 g | Area of leaf (0.001 mg/l, 4 °C, 9 days): 13.1 cm^2 | Height (0.001 mg/l, 4 °C, 9 days): 7.5 cm | Weight of root (0.001 mg/l, 4 °C, 9 days): 2.9 g | Area of leaf (0.001 mg/l, 4 °C, 12 days): 13.5 cm^2 | Height (0.001 mg/l, 4 °C, 12 days): 7.7 cm | Number of leaf (0.001 mg/l, 4 °C, 12 days): 3 | Number of tiller (0.001 mg/l, 4 °C, 12 days): 2 | Weight of root (0.001 mg/l, 4 °C, 12 days): 2.9 g | Area of leaf (0.001 mg/l, 5 °C, 3 days): 10.7 cm^2 | Height (0.001 mg/l, 5 °C, 3 days): 7.5 cm | Weight of root (0.001 mg/l, 5 °C, 3 days): 2.8 g | Area of leaf (0.001 mg/l, 5 °C, 6 days): 14.6 cm^2 | Height (0.001 mg/l, 5 °C, 6 days): 7.7 cm | Weight of root (0.001 mg/l, 5 °C, 6 days): 2.9 g | Area of leaf (0.001 mg/l, 5 °C, 9 days): 16.4 cm^2 | Height (0.001 mg/l, 5 °C, 9 days): 7.9 cm | Weight of root (0.001 mg/l, 5 °C, 9 days): 3.0 g | Area of leaf (0.001 mg/l, 5 °C, 12 days): 17 cm^2 | Height (0.001 mg/l, 5 °C, 12 days): 8.2 cm | Number of leaf (0.001 mg/l, 5 °C, 12 days): 3 | Number of tiller (0.001 mg/l, 5 °C, 12 days): 3 | Weight of root (0.001 mg/l, 5 °C, 12 days): 3.7 g | Area of leaf (0.01 mg/l, 1 °C, 3 days): 10.1 cm^2 | Height (0.01 mg/l, 1 °C, 3 days): 6.9 cm | Weight of root (0.01 mg/l, 1 °C, 3 days): 2.8 g | Area of leaf (0.01 mg/l, 1 °C, 6 days): 11.9 cm^2 | Height (0.01 mg/l, 1 °C, 6 days): 7.2 cm | Weight of root (0.01 mg/l, 1 °C, 6 days): 3.0 g | Area of leaf (0.01 mg/l, 1 °C, 9 days): 12.9 cm^2 | Height (0.01 mg/l, 1 °C, 9 days): 7.3 cm | Weight of root (0.01 mg/l, 1 °C, 9 days): 3.4 g | Area of leaf (0.01 mg/l, 1 °C, 12 days): 13.6 cm^2 | Height (0.01 mg/l, 1 °C, 12 days): 7.4 cm | Number of leaf (0.01 mg/l, 1 °C, 12 days): 3 | Number of tiller (0.01 mg/l, 1 °C, 12 days): 3 | Weight of root (0.01 mg/l, 1 °C, 12 days): 3.9 g | Area of leaf (0.01 mg/l, 2 °C, 3 days): 10.3 cm^2 | Height (0.01 mg/l, 2 °C, 3 days): 6.9 cm | Weight of root (0.01 mg/l, 2 °C, 3 days): 2.8 g | Area of leaf (0.01 mg/l, 2 °C, 6 days): 11.8 cm^2 | Height (0.01 mg/l, 2 °C, 6 days): 7.2 cm | Weight of root (0.01 mg/l, 2 °C, 6 days): 3.0 g | Area of leaf (0.01 mg/l, 2 °C, 9 days): 12.8 cm^2 | Height (0.01 mg/l, 2 °C, 9 days): 7.3 cm | Weight of root (0.01 mg/l, 2 °C, 9 days): 3.1 g | Area of leaf (0.01 mg/l, 2 °C, 12 days): 13.4 cm^2 | Height (0.01 mg/l, 2 °C, 12 days): 7.5 cm | Number of leaf (0.01 mg/l, 2 °C, 12 days): 3 | Number of tiller (0.01 mg/l, 2 °C, 12 days): 3 | Weight of root (0.01 mg/l, 2 °C, 12 days): 3.2 g | Area of leaf (0.01 mg/l, 3 °C, 3 days): 10.4 cm^2 | Height (0.01 mg/l, 3 °C, 3 days): 7 cm | Weight of root (0.01 mg/l, 3 °C, 3 days): 2.5 g | Area of leaf (0.01 mg/l, 3 °C, 6 days): 12 cm^2 | Height (0.01 mg/l, 3 °C, 6 days): 7.2 cm | Weight of root (0.01 mg/l, 3 °C, 6 days): 2.6 g | Area of leaf (0.01 mg/l, 3 °C, 9 days): 12.6 cm^2
